Source: patent publication US5902812A, “Pharmaceutical piperazine compounds” (Xenova Limited, priority 1994, dated 1999)
Counter-ions that a name gives are not always drawn. Like-named read-outs stand apart in the source and are kept apart here.

Molecular target: PAI-1 (Homo sapiens, UniProt P05121)
Assay: biochemical
Conditions: for inhibition at 20 µM: 20 μM (third part of Table 1); for IC50: PAI chromogenic substrate assay, read-out: IC50
[1] = 100 μM, read-out: Degree of inhibition in PAI chromogenic substrate assay
[2] = 6.25 μM, read-out: Degree of inhibition in PAI chromogenic substrate assay
[3] = 12.5 μM, read-out: Degree of inhibition in PAI chromogenic substrate assay
[4] = 25 μM, read-out: Degree of inhibition in PAI chromogenic substrate assay
[5] = 50 μM, read-out: Degree of inhibition in PAI chromogenic substrate assay
[6] = read-out: Degree of inhibition in PAI chromogenic substrate assay
[7] = 50 μM (third part of Table 1), read-out: Degree of inhibition in PAI chromogenic substrate assay
[8] = 100 μM (third part of Table 1), read-out: Degree of inhibition in PAI chromogenic substrate assay

Chain of PAI-1 (P05121 24-402): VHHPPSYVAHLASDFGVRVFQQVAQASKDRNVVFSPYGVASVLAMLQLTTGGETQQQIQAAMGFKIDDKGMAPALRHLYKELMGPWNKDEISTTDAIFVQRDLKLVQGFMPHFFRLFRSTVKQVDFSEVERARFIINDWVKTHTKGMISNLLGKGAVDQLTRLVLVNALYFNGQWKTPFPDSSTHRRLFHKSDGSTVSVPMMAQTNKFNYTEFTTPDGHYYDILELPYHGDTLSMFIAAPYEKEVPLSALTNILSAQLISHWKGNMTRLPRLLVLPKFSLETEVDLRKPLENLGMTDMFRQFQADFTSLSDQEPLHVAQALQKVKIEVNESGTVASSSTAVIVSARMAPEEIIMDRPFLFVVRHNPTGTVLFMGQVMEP
Description: In this assay, a compound is incubated with PAI-1 prior to addition to the tPA assay system. Inhibition of PAI-1 results in the production of plasmin from plasminogen. In turn, plasmin cleaves the chromogenic substrate S2251 (Kabi Vitrum) producing pNA (p-nitroaniline) which is detected spectrophotometrically at 405 nm (K. Nilsson et al, Fibrinolysis (1987) 1, 163-168).
Compounds of formula (A) were tested in a PAI chromogenic substrate assay. In the assay (K.Nilsson, Fibrinolysis (1987) 1, 163-168) each compound was incubated with PAI-1 prior to addition to the tPA assay system. […] In turn, the plasmin cleaved the chromogenic substrate S2251 (Kabi-Vitrum) producing pNA (p-nitroaniline) which was detected spectrophotometrically at 405 nm.

Row | SMILES | Degree of inhibition in PAI chromogenic substrate assay (25 μM) | Degree of inhibition in PAI chromogenic substrate assay (50 μM) | Degree of inhibition in PAI chromogenic substrate assay (100 μM) | inhibition at 20 µM [6] | inhibition at 50 µM [7] | inhibition at 100 µM [8] | further results
1 | CN(C)CCOc1ccc(/C=c2\[nH]c(=O)/c(=C/c3ccccc3)[nH]c2=O)c(Cl)c1.Cl [Compound 1960, (3Z,6Z)-6-Benzylidene-3-(2-chloro-4-(2-dimethylaminoethoxy)benzylidene)-2,5-piperazinedione, hydrochloride] | 67% | 64% | – | – | – | – | Degree of inhibition in PAI chromogenic substrate assay (6.25 μM): 56%; Degree of inhibition in PAI chromogenic substrate assay (12.5 μM): 63%; inhibition at 100 µM [1]: 32%
2 | CN(C)CCOc1ccc(/C=c2\[nH]c(=O)/c(=C/c3ccccc3)[nH]c2=O)cc1 [Compound 1961, (3Z,6Z)-3-Benzylidene-6-(4-(2-dimethylaminoethoxy)benzylidene)-2,5-piperazinedione] | – | – | – | – | – | – | inhibition at 3.75 µM (3.75 μM, read-out: Degree of inhibition in PAI chromogenic substrate assay): 1%; inhibition at 7.5 µM (7.5 μM, read-out: Degree of inhibition in PAI chromogenic substrate assay): 11%; inhibition at 15 µM (15 μM, read-out: Degree of inhibition in PAI chromogenic substrate assay): 41%; inhibition at 30 µM (30 μM, read-out: Degree of inhibition in PAI chromogenic substrate assay): 49%; inhibition at 60 µM (60 μM, read-out: Degree of inhibition in PAI chromogenic substrate assay): 48%
3 | CN(C)CCOc1ccc(/C=c2\[nH]c(=O)/c(=C/c3ccc(OCCN(C)C)cc3)[nH]c2=O)cc1 [Compound 1962, (3Z,6Z)-3,6-Di-(4-(2-dimethylaminoethoxy)benzylidene)-2,5-piperazinedione dihydrochloride] | – | – | – | – | – | – | inhibition at 6.25 µM [2]: 1%; inhibition at 12.5 µM [3]: 1%; inhibition at 25 µM [4]: 1%; inhibition at 50 µM [5]: 2%; inhibition at 100 µM [1]: 2%
4 | CN(C)CCOc1ccc(/C=c2\[nH]c(=O)/c(=C/c3ccccc3)[nH]c2=O)c(OCCN(C)C)c1 [Compound 1969] | 6% | 20% | 52% | – | – | – | inhibition at 6.25 µM [2]: 2%; inhibition at 12.5 µM [3]: 0%
5 | CN(C)CCOc1ccc(/C=c2\[nH]c(=O)/c(=C/c3ccc(F)cc3F)[nH]c2=O)cc1 [Compound 1977, (3Z,6Z)-3-(2,4-Difluorobenzylidene)-6-(4-(2-dimethylaminoethoxy)benzylidene)-2,5-piperazinedione] | – | – | – | – | – | – | inhibition at 6.25 µM [2]: 0%; inhibition at 12.5 µM [3]: 20%; inhibition at 25 µM [4]: 47%; inhibition at 50 µM [5]: 47%; inhibition at 100 µM [1]: 54%
6 | CN(C)CCOc1ccc(/C=c2\[nH]c(=O)/c(=C/c3ccccc3)[nH]c2=O)cc1OCCN(C)C [Compound 1978, (3Z,6Z)-6-Benzylidene-3-(3,4-di-(2-dimethylaminoethoxy)benzylidene)-2,5-piperazinedione] | 11% | 41% | 50% | – | – | – | Degree of inhibition in PAI chromogenic substrate assay (6.25 μM): 3%; Degree of inhibition in PAI chromogenic substrate assay (12.5 μM): 0%
7 | CN(C)CCOc1ccccc1/C=c1\[nH]c(=O)/c(=C/c2ccccc2)[nH]c1=O [Compound 1979, (3Z,6Z)-Benzylidene-3-(2-(2-dimethylaminoethoxy)benzylidene)-2,5-piperazinedione] | – | – | 37% | – | – | – | inhibition at 6.25 µM [2]: 0%
8 | CN(C)CCOc1ccc(/C=c2\[nH]c(=O)/c(=C/c3c(Cl)cccc3Cl)[nH]c2=O)cc1 [Compound 1980, (3Z,6Z)-3-(2,6-Dichlorobenzylidene)-6-(4-(2-dimethylaminoethoxy)benzylidene)-2,5-piperazinedione] | 51% | 41% | 66% | – | – | – | Degree of inhibition in PAI chromogenic substrate assay (6.25 μM): 0%; Degree of inhibition in PAI chromogenic substrate assay (12.5 μM): 13%
9 | CN(C)CCCN(CCCN(C)C)Cc1ccc(/C=c2\[nH]c(=O)/c(=C/c3ccccc3)[nH]c2=O)cc1 [Compound 1981, (3Z,6Z)-3-Benzylidene-6-(4-bis(3-dimethylaminopropyl)aminomethylbenzylidene)-2,5-piperazinedione] | 26% | 41% | 51% | – | – | – | Degree of inhibition in PAI chromogenic substrate assay (12.5 μM): 7%
10 | CN(C)CCOc1ccc(/C=c2\[nH]c(=O)/c(=C/c3ccccc3)[nH]c2=O)c(OCCN(C)C)c1 [Compound 1984] | 0% | 0% | 17% | – | – | – | Degree of inhibition in PAI chromogenic substrate assay (12.5 μM): 0%
11 | CN(C)CCSCc1ccc(/C=c2\[nH]c(=O)/c(=C/c3ccccc3)[nH]c2=O)cc1 [Compound 5058, (3Z,6Z)-6-Benzylidene-3-(4-(2-Dimethylaminoethylthiomethyl)benzylidene)-2,5-piperazinedione] | – | – | – | 75% | 68% | 67% | –
12 | CN(C)CCCOc1ccc(/C=c2\[nH]c(=O)/c(=C/c3ccccc3Br)[nH]c2=O)cc1 [Compound 5060.HCl, (3Z,6Z)-3-(2-Bromobenzylidene)-6-(4-(3-dimethylaminopropoxy)benzylidene)-2,5-piperazinedione] | – | – | – | 52% | 65% | 75% | –
13 | CCN(CC)CCOc1ccc(/C=c2\[nH]c(=O)/c(=C/c3ccccc3)[nH]c2=O)cc1 [Compound 5065.HCl] | – | – | – | 12% | 80% | 85% | –
14 | CN(C)CCCOc1ccc(/C=c2\[nH]c(=O)/c(=C/c3ccc(N(C)C)cc3)[nH]c2=O)cc1 [Compound 5068.HCl, (3Z,6Z)-3-(4-Dimethylaminobenzylidene)-6-(4-(3-dimethylaminopropoxy)benzylidene)-2,5-piperazinedione] | – | – | – | 81% | 76% | 75% | –
15 | CN(C)CCOCc1ccc(/C=c2\[nH]c(=O)/c(=C/c3ccccc3Br)[nH]c2=O)cc1 [Compound 5070.HCl, (3Z,6Z)-3-(2-Bromobenzylidene)-6-(4-(2-dimethylaminoethoxymethyl)benzylidene)-2,5-piperazinedione] | – | – | – | 6% | 6% | 40% | –
16 | CN(C)CCSCc1ccc(/C=c2\[nH]c(=O)/c(=C/c3ccccc3Br)[nH]c2=O)cc1 [Compound 5080.HCl, (3Z,6Z)-3-(2-Bromobenzylidene)-6-(4-(2-Dimethylaminoethylthiomethyl)benzylidene)-2,5-piperazinedione] | – | – | – | 10% | 48% | 62% | –
17 | Cc1ccccc1/C=c1\[nH]c(=O)/c(=C/c2ccc(OCCCN(C)C)cc2)[nH]c1=O [Compound 5186, (3Z,6Z)-6-(4-(3-Dimethylaminopropoxy)benzylidene)-3-(2-methylbenzylidene)-2,5-piperazinedione] | – | – | – | 10% | – | 46% | –
18 | Cc1cccc(/C=c2\[nH]c(=O)/c(=C/c3ccc(OCCCN(C)C)cc3)[nH]c2=O)c1 [Compound 5187, (3Z,6Z)-6-(4-(3-Dimethylaminopropoxy)benzylidene)-3-(3-methylbenzylidene)-2,5-piperazinedione] | – | – | – | 10% | – | 58% | IC50: 100 µM
19 | CN(C)CCCOc1ccc(/C=c2\[nH]c(=O)/c(=C/c3ccc4c(c3)OCO4)[nH]c2=O)cc1 [Compound 5201, (3Z,6Z)-6-(4-(3-Dimethylaminopropoxy)benzylidene)-3-(3,4-methylenedioxybenzylidene)-2,5-piperazinedione] | – | – | – | 43% | – | 47% | IC50: 2.5 µM
